Experimental data: ChEMBL document CHEMBL1201862, “PubChem BioAssay data set” (2004)
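Dose response: 5 concentrations. Exposure: 48 h. Format: 96-well plates. Endpoint: linear interpolation; highest concentration if not reached. GI50 = concentration required for 50% inhibition of growth.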 The source made the active and inactive calls. Cut-off read from the data, not from the text of the source: active = GI50 up to about 1.1 µM and inactive = higher.

Tests used:
Assay in all cases: inhibition of tumour cell growth, NCI panel, 48 h
DMS-273 = tested on: DMS-273
DLD-1 = tested on: DLD-1
RXF 631 = tested on: RXF 631
KM-20L2 = tested on: KM-20L2
XF498 = tested on: XF498
M19-MEL = tested on: M19-MEL
DMS-114 = tested on: DMS-114
HOP-18 = tested on: HOP-18
BT-549 = tested on: BT-549

SMILES	GI50 (DMS-273)	GI50 (DLD-1)	GI50 (RXF 631)	GI50 (KM-20L2)	GI50 (XF498)	GI50 (M19-MEL)	GI50 (DMS-114)	GI50 (HOP-18)	GI50 (BT-549)
O=C1CC(c2c[nH]c3ccccc23)C(=O)N1 (configuration not stated)	> 100 µM (inactive)	> 100 µM (inactive)	> 100 µM (inactive)	> 100 µM (inactive)	> 100 µM (inactive)	> 100 µM (inactive)			
C/C(CCn1[nH]c(=O)ccc1=O)=N\O	> 100 µM (inactive)	> 100 µM (inactive)	> 100 µM (inactive)	> 100 µM (inactive)	> 100 µM (inactive)	> 100 µM (inactive)	> 100 µM (inactive)	> 100 µM (inactive)	
CN1CN(C2OC(CO)C(O)C2O)c2nc(N)[nH]c(=O)c21 (configuration not stated)	> 100 µM (inactive)	> 100 µM (inactive)		> 100 µM (inactive)	> 100 µM (inactive)	> 100 µM (inactive)	> 100 µM (inactive)	> 100 µM (inactive)	
CCSc1nnc(CSc2nc(-c3ccccc3)c(-c3ccccc3)[nH]2)n1-c1ccccc1	23.4 µM (inactive)	20.2 µM (inactive)	19.6 µM (inactive)	17.9 µM (inactive)	20.3 µM (inactive)	18.6 µM (inactive)	19 µM (inactive)	13.8 µM (inactive)	
COc1cccc2cc(C)c(C(=O)c3ccccc3)nc12	> 100 µM (inactive)	> 100 µM (inactive)	> 100 µM (inactive)	> 100 µM (inactive)	> 100 µM (inactive)	> 100 µM (inactive)	> 100 µM (inactive)	> 100 µM (inactive)	
COc1ccc(NC(=O)CC/C(CC(=O)c2ccco2)=N/NC(=O)C(N)=O)cc1	> 100 µM (inactive)	> 100 µM (inactive)		> 100 µM (inactive)	82.8 µM (inactive)	74.6 µM (inactive)	35.2 µM (inactive)	> 100 µM (inactive)	
CCOC(=O)CC1=Nc2ccccc2SC1	> 100 µM (inactive)	> 100 µM (inactive)	> 100 µM (inactive)	> 100 µM (inactive)	> 100 µM (inactive)	> 100 µM (inactive)	> 100 µM (inactive)	> 100 µM (inactive)	
COc1cc2c(cc1OC)-c1cc(OC)c(OC)cc1[C@H]1CN3CCC[C@@]3(O)C=C21	< 0.0001 µM (active)	< 0.0001 µM (active)		< 0.0001 µM (active)	< 0.0001 µM (active)	< 0.0001 µM (active)	< 0.0001 µM (active)	< 0.0001 µM (active)	
N/N=c1/nc2n(c3ncccc13)C=CNN2	> 100 µM (inactive)	> 100 µM (inactive)	> 100 µM (inactive)	> 100 µM (inactive)	> 100 µM (inactive)		> 100 µM (inactive)		
COCC1C(=O)c2cc3c(cc2C12C=CC1(C=C2)OCCO1)OCO3 (configuration not stated)	11.1 µM (inactive)	2.22 µM (inactive)	4.59 µM (inactive)	10.6 µM (inactive)	5.38 µM (inactive)	2.93 µM (inactive)	2.99 µM (inactive)		
O=C(Cc1csc(-c2nc(CC(=O)NNc3ccccc3)cs2)n1)NNc1ccccc1	12.8 µM (inactive)	49 µM (inactive)	> 10 µM (inactive)	> 100 µM (inactive)	> 100 µM (inactive)	> 100 µM (inactive)	25.6 µM (inactive)	> 100 µM (inactive)	
CC(=O)CCC1(c2ccccc2)OC(=O)C(C#N)=C1c1ccccc1 (configuration not stated)	> 100 µM (inactive)	> 100 µM (inactive)	> 100 µM (inactive)	> 100 µM (inactive)	> 100 µM (inactive)	> 100 µM (inactive)	> 100 µM (inactive)		
N#CC1CCCCOCCOCCOCCOCCOCCCCCC1=O (configuration not stated)	> 100 µM (inactive)	> 100 µM (inactive)	> 100 µM (inactive)	> 100 µM (inactive)		> 100 µM (inactive)	> 100 µM (inactive)	> 100 µM (inactive)	
COC(=O)C1C2C=CC(C2)C1(C(=O)OC)[S+]([O-])CC12CCC(CC1O)C2(C)C (configuration not stated)	44.4 µM (inactive)	60.8 µM (inactive)	> 100 µM (inactive)	> 100 µM (inactive)	> 100 µM (inactive)	> 100 µM (inactive)	85.7 µM (inactive)	> 100 µM (inactive)	
Cc1cc(Br)cc(C)c1NC(=O)C(=O)C(C(=O)c1ccncc1)C1OC(=O)c2ccccc21 (configuration not stated)	> 100 µM (inactive)	> 100 µM (inactive)	> 100 µM (inactive)	> 100 µM (inactive)	> 100 µM (inactive)		> 100 µM (inactive)	> 100 µM (inactive)	
CCCCCCC(=O)OC[n+]1ccc2c(C)c3[nH]c4ccccc4c3c(C)c2c1	0.106 µM (active)	0.4 µM (active)	2.54 µM (inactive)	0.582 µM (active)		1.04 µM (active)	1.08 µM (active)		
CC[C@@]1(O)CC(OC2CC(N3CCOCC3)C(O)C(C)O2)c2c(O)c3c(c(O)c2[C@H]1O)C(=O)c1cccc(O)c1C3=O (some centres not stated)	0.0358 µM (active)	0.143 µM (active)		0.191 µM (active)	0.0493 µM (active)	0.101 µM (active)	0.0935 µM (active)	0.237 µM (active)	0.0508 µM (active)
C[C@@H](NC1CCC[C@@H]1O)c1ccccc1 (some centres not stated)	> 100 µM (inactive)	> 100 µM (inactive)		> 100 µM (inactive)	> 100 µM (inactive)	> 100 µM (inactive)	> 100 µM (inactive)	> 100 µM (inactive)	
CC(=O)Oc1ccc(O)c(O)c1C/C=C(\C)CC/C=C(\C)CC/C=C(\C)CCC=C(C)C [TETRAPRENYLPHENOLSUILLIN]	0.246 µM (active)	0.34 µM (active)		0.946 µM (active)	0.357 µM (active)	0.393 µM (active)	0.35 µM (active)	0.187 µM (active)	
